Literature values as cited in US20120263714A1, “SUBSTITUTED HALOPHENOXYBENZAMIDE DERIVATIVES” (BAYER INTELLECTUAL PROPERTY GMBH, priority 2009, published 2012).

Key:
colon cancer = settings: oral treatment, mouse models
MEK1/2 = MEK1/2 inhibitor, background statement

SMILES: O=C(NOCC1CC1)c1ccc(F)c(F)c1Nc1ccc(I)cc1Cl [CI-1040]
- colon cancer growth in vivo (colon cancer): inhibit colon cancer growth in vivo
- IC50 (MEK1/2): low nanomolar range
